Source: US20230102379A1 (priority 2020, published 2023)
“Also recorded” adds a separate entry of the source. Where two headings read alike, the source gives them in different places.

How the values were obtained:
L. crescens [1] = type: cell-based, Liberibacter crescens
Xylella fastidiosa = type: cell-based; details: for diameter of inhibition: highest dose tested (2.12 μmol)
Xf = details: cited from earlier work
E. coli [2] = details: cited from earlier work
Micrococcus luteus = details: cited from earlier work
MRSA = details: cited from earlier work
Vibrio harveyi = details: cited from earlier work
E. coli [3] = details: agar diffusion; cited from earlier work
Bacillus megaterium = details: agar diffusion; cited from earlier work
[4] = tested on: transcriptional accessory protein; details: cited from earlier work
L. crescens [5] = details: cited from earlier work

SMILES: C/C=C/C(=O)n1nnc2ccccc21
- melting point: 91 to 93 °C

SMILES: C/C=C/c1cc2c(c(=O)o1)C(=O)CC(C)O2 (racemic) [Compound 2, (E)-2-methyl-7-(prop-1-en-1-yl)-2,3-dihydropyrano[4,3-b]pyran-4,5-dione]
- inhibition of L. crescens (in words) (L. crescens [1]): notable linear relationships between compound dose and antibacterial response; also recorded: most potent inhibitor of L. crescens tested; also recorded: potently inhibit; also recorded: potent inhibitor
- inhibition of L. crescens (in words) (L. crescens [1]; dose 1.06 μmol and higher): complete inhibition
- inhibition of L. crescens (in words) (L. crescens [1]; listed as deoxyradicinin): nanomolar inhibitor
- diameter of inhibition (L. crescens [1]; lowest tested dose of 0.053 μmol): 4.0 cm
- inhibition of Xf (in words) (Xylella fastidiosa): consistent, somewhat linear relationship between compound dose and antibacterial response; also recorded: more potent than 1; also recorded: potent inhibitor
- inhibition of Xf (in words) (Xylella fastidiosa; listed as deoxyradicinin): low micromolar inhibitor

SMILES: CCCc1cc2c(c(=O)o1)C(=O)CC(C)O2 (racemic) [Compound 3, 2-methyl-7-propyl-2,3-dihydropyrano[4,3-b]pyran-4,5-dione]
- inhibition of L. crescens (in words) (L. crescens [1]): notable linear relationships between compound dose and antibacterial response
- dose at which activity is shown (Xylella fastidiosa): greater than 0.53 μmol
- diameter of inhibition (Xylella fastidiosa): 3.4 cm

SMILES: C/C=C/c1cc2c(c(=O)o1)C(=O)C[C@H](C)O2 (single isomer, unassigned) [(−)-2, (−)-deoxyradicinin]
- inhibition of L. crescens (in words) (L. crescens [1]): potently inhibit

SMILES: C/C=C/c1cc2c(c(=O)o1)C(=O)CC(C)O2 (single isomer, unassigned; (+)) [(+)-2, (+)-deoxyradicinin]
- inhibition of L. crescens (in words) (L. crescens [1]): potently inhibit

SMILES: C/C=C/c1cc2c(c(=O)o1)C(=O)[C@@H](O)[C@H](C)O2 [Compound 1, radicinin]
- inhibition of L. crescens (in words) (L. crescens [1]): notable linear relationships between compound dose and antibacterial response
- inhibition of Xf (in words) (Xylella fastidiosa): consistent, somewhat linear relationship between compound dose and antibacterial response
- diameter of inhibition (Xylella fastidiosa): 10 cm
- inhibition of Xf in vitro (in words) (Xf): inhibitor of Xf in vitro

SMILES: C/C=C/C(=O)c1c(O)cc(/C=C/C)oc1=O [Compound 4, 3-((E)-but-2-enoyl)-4-hydroxy-6-((E)-prop-1-en-1-yl)-2H-pyran-2-one]
- inhibition of L. crescens (in words) (L. crescens [1]): notable linear relationships between compound dose and antibacterial response

SMILES: C/C=C/c1cc(O)cc(=O)o1 [Compound 5, (E)-4-hydroxy-6-(prop-1-en-1-yl)-2H-pyran-2-one]
- diameter of inhibition (L. crescens [1]; highest dose): 2.6 cm
- diameter of inhibition (L. crescens [1]; lower doses): 0.2 cm
- inhibition of Xf (in words) (Xylella fastidiosa): inactive
- melting point: 183 to 185 °C

SMILES: O=C1CCC(c2ccc(O)c3c2C(=O)C2OC2C3O)c2cccc(O)c21 (stereo not shown) [Compound 21, cladosporol A]
- antibacterial activity (in words) (E. coli [2]): modest antibacterial activity
- antibacterial activity (in words) (Micrococcus luteus): modest antibacterial activity
- antibacterial activity (in words) (MRSA): modest antibacterial activity
- antibacterial activity (in words) (Vibrio harveyi): modest antibacterial activity

SMILES: CC(CCCCCCCCCCCCCCO[C@@H]1O[C@H](CO)[C@@H](O)[C@H](O)[C@@H]1O)C(O)=C1C(=O)C(C)N(C)C1=O (stereo partly shown) [Compound 24, epicoccamide A]
- antibacterial activity (in words) (E. coli [2]): modest antibacterial activity
- antibiotic activity (in words) (E. coli [3]): no detectable antibiotic activity
- antibiotic activity (in words) (Bacillus megaterium): no detectable antibiotic activity
- antibacterial activity (in words) (Micrococcus luteus): modest antibacterial activity
- antibacterial activity (in words) (MRSA): modest antibacterial activity
- antibacterial activity (in words) (Vibrio harveyi): modest antibacterial activity

SMILES: Cc1c(Cl)cccc1Nc1ccccc1C(=O)O [Tolfenamic acid]
- inhibition of transcriptional accessory protein (in words) [4]: inhibits a transcriptional accessory protein

SMILES: CO/N=C(\C(=O)N[C@@H]1C(=O)N2C(C(=O)O)=C(COC(C)=O)CS[C@H]12)c1csc(N)n1 [cefotaxime]
- concentration providing nearly complete inhibition of L. crescens (L. crescens [5]): 0.7 µM

SMILES: CC1(C)S[C@@H]2[C@H](NC(=O)COc3ccccc3)C(=O)N2[C@H]1C(=O)O [penicillin V]
- concentration providing nearly complete inhibition of L. crescens (L. crescens [5]): 0.1 µM
